Data on two compounds can be found in ChEMBL document CHEMBL1201862, “PubChem BioAssay data set” (2004).

Each structure is given as a SMILES string. The source made the active and inactive calls.

The target in experiment [1] is T1, Nucleotide-binding oligomerization domain-containing protein 1 (Homo sapiens, UniProt Q9Y239).
T1 sequence (Q9Y239 whole entry): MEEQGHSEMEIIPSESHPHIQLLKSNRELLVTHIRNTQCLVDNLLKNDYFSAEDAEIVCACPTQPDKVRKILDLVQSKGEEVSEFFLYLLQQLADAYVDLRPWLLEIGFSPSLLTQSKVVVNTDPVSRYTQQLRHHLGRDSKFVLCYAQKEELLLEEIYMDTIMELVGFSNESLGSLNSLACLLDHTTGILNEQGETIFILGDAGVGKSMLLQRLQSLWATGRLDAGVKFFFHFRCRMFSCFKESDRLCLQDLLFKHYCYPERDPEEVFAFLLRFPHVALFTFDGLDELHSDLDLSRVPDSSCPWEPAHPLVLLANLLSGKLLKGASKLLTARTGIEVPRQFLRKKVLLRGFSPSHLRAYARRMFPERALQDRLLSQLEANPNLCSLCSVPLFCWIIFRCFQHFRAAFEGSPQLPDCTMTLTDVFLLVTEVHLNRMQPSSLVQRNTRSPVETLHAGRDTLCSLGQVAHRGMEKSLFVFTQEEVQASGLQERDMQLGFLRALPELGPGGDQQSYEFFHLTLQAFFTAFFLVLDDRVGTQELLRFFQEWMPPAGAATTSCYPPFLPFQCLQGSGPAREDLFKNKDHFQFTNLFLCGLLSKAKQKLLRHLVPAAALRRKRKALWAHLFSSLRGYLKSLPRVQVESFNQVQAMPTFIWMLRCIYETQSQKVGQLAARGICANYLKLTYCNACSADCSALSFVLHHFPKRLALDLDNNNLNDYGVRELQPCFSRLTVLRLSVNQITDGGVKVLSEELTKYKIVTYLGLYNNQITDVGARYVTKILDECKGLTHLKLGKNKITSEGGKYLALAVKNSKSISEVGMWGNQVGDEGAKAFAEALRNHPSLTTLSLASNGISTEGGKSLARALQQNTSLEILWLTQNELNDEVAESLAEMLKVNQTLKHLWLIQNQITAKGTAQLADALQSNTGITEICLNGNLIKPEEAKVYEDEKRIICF
As to the kind of experiment: SAR analysis of NF-kappaB dependent luciferase using DAP as an inducer - Set 2. [Related pubchem assays (depositor defined):AID1566, AID1575, AID1578, AID1579, AID1849, AID1852, AID2264]. Format: functional.

In experiment [2] the test system is Streptococcus sp. 'group A'. Briefly: Streptococcus pyogenes SK(-)GAS viability under kanamycin – luminescence, BacTiterGlo, confirmation, counter-screen for streptokinase expression inhibitor project, dose response (AID 1900). Format: functional, organism-based. In general terms: A counterscreen serves to expose hits that act by an unwanted route or on another target.

The next experiment addresses T2, Streptokinase A (Streptococcus pyogenes serotype M1, UniProt P10520).
T2 sequence (P10520 whole entry): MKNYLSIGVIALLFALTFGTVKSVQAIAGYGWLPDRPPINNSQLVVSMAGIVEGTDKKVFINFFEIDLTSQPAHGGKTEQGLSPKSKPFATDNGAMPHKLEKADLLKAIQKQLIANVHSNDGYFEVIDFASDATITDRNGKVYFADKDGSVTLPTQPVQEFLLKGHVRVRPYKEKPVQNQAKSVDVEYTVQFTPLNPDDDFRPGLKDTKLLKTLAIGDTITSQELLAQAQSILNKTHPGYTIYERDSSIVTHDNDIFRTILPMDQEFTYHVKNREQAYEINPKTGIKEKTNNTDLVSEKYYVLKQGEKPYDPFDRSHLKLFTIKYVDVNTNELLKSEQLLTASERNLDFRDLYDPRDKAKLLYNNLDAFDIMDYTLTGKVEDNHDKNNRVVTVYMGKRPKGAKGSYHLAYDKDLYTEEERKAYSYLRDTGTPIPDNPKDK
As to the kind of experiment: viability-normalized secreted streptokinase activity reduction – plasminogen activation absorbance, OD405, dose response (AID 1914).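 Note: secreted streptokinase activity via plasminogen activation per viability signal from cell pellet.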 Format: functional, Streptococcus pyogenes M1 GAS.

For experiment [3], the target named is T3, Interleukin-8 (Homo sapiens, UniProt P10145).
T3 sequence (P10145 whole entry): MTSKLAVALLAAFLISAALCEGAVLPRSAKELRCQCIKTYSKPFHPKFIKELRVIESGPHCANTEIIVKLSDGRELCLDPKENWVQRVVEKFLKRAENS
As to the kind of experiment: SAR analysis of Tumor necrosis factor alpha (TNF-alpha) induced IL-8 secretion in MCF-7/NOD1 cells - Set 2. [Related pubchem assays (depositor defined):AID1575, AID2250, AID2260]. Format: functional, cell-based.

Experiment [4] deals with T3, Interleukin-8. Briefly: SAR analysis of GM-Tri-DAP induced IL-8 secretion in MCF-7/NOD1 cells - Set 2. [Related pubchem assays (depositor defined):AID1575, AID1578, AID2333]. Format: functional, cell-based.
A further experiment has as its system Streptococcus. Briefly: GAS UMAA2166 growth inhibition – luminescence, BacTiterGlo, counter-screen for streptokinase expression inhibitor project, dose response (AID 1915).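 Note: potency for reduction of bacterial viability or growth.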 Format: functional, organism-based.
Experiment [5] concerns the target T4, Nucleotide-binding oligomerization domain-containing protein 2 (Homo sapiens, UniProt Q9HC29). Briefly: inhibition of NOD2 signaling – set 2, SAR follow-up (AID 2475). Format: functional.
Experiment [6] deals with HEK293. As to the kind of experiment: SAR analysis of compounds that are cytotoxic to HEK293 - Set 2. [Related pubchem assays (depositor defined):AID1575, AID1578, AID1849, AID2001, AID2333, AID2334, AID2335, AID2337, AID2800]. Format: functional, cell-based. The settings on record: Homo sapiens.
Experiment [7] addresses T1, Nucleotide-binding oligomerization domain-containing protein 1. As to the kind of experiment: SAR analysis of compounds that inhibit NOD1 - Set 2. [Related pubchem assays (depositor defined):AID1566, AID1575, AID1578, AID1849, AID1852, AID2333, AID2335, AID2798]. Format: functional.
Experiment [8] has the same target. Briefly: SAR analysis of compounds that inhibit NOD1 - Set 3. [Related pubchem assays (depositor defined):AID1566, AID1575, AID1578, AID1849, AID1852, AID2333, AID2335, AID2466]. Format: functional.
For the next experiment, the target named is Tumor necrosis factor (Homo sapiens, UniProt P01375). As to the kind of experiment: analog potency on TNFa NF-kB signaling – cell-based, set 3, SAR follow-up (AID 2801). Format: functional.
Sequence of Tumor necrosis factor (P01375 whole entry): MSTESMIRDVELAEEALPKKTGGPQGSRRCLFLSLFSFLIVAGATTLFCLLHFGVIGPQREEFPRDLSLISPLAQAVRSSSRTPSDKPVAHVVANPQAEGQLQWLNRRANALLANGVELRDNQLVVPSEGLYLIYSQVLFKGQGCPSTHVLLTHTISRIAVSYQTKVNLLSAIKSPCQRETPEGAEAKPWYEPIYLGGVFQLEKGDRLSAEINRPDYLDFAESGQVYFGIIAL
Experiment [9] relates to HEK293. As to the kind of experiment: SAR analysis of compounds that are cytotoxic to HEK293 - Set 3. [Related pubchem assays (depositor defined):AID1575, AID1578, AID1848, AID1849, AID2001, AID2333, AID2334, AID2335, AID2337, AID2469]. Format: functional, cell-based. To be noted: Homo sapiens.
In experiment [10] the target is T4, Nucleotide-binding oligomerization domain-containing protein 2. As to the kind of experiment: inhibition of MDP-driven NOD2 NF-kB reporter – cell-based, set 3, SAR follow-up (AID 2799). Format: functional.
The target of experiment [11] is T5, Heat shock factor protein 1 (Mus musculus, UniProt P38532).
T5 sequence (P38532 whole entry): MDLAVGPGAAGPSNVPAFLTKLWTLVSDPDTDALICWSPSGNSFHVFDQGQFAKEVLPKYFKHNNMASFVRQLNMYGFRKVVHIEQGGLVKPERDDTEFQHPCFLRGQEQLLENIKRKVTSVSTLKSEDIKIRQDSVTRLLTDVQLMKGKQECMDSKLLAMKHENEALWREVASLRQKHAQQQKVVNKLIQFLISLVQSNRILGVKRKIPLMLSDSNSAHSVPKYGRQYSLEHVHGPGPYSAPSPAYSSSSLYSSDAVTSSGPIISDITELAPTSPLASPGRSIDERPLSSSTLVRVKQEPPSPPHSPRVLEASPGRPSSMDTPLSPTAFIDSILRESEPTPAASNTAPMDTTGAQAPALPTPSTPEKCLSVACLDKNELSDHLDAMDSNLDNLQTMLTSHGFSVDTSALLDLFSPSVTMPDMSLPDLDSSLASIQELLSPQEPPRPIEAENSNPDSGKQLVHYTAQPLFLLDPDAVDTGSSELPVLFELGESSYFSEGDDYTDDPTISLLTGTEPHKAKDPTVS
Briefly: decrease of HSF1-responsive luciferase luminescence – cell-based, NIH3T3, dose retest, confirmation (AID 2382).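 Note: NIH3T3 fibroblasts with HSF1-driven luciferase reporter stressed by proteasome inhibitor MG132; luminescence from HSF1-driven luciferase expression after 8 hours of MG132 stress.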 Format: functional.

The target of experiment [12] is Intestinal-type alkaline phosphatase (Mus musculus, UniProt P24822). As to the kind of experiment: PubChem AID 488785. Format: functional.
Sequence of Intestinal-type alkaline phosphatase (Mus musculus, UniProt P24822) (P24822 whole entry): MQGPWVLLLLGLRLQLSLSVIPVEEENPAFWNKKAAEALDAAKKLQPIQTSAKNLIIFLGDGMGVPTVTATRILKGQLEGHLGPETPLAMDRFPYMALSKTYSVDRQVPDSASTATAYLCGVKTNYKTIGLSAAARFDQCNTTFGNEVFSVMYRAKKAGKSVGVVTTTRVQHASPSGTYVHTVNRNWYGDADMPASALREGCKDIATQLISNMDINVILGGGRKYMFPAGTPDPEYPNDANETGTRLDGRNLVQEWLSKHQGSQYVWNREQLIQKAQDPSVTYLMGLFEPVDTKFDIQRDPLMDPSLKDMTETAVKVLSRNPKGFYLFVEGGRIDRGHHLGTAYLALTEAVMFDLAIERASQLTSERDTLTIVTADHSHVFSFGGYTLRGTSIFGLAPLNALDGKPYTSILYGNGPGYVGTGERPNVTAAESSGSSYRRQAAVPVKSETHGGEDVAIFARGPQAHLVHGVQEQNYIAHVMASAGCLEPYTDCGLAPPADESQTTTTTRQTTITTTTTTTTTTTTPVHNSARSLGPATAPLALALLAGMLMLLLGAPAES
Experiment [13] concerns the target T6, Alkaline phosphatase, tissue-nonspecific isozyme (Homo sapiens, UniProt P05186).
T6 sequence (P05186 whole entry): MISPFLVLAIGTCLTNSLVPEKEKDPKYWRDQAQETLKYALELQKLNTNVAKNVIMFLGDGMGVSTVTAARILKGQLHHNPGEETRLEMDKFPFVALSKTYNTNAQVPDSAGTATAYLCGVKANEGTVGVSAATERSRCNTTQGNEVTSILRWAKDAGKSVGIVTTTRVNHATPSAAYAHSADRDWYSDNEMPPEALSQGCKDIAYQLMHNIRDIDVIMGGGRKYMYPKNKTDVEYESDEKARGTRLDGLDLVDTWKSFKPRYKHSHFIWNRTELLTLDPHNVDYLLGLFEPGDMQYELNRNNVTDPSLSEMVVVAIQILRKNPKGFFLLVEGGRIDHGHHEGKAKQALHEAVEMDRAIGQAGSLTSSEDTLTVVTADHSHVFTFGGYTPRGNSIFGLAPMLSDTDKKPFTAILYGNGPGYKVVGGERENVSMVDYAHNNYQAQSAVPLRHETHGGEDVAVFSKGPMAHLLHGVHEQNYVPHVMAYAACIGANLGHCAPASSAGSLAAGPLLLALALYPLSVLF
As to the kind of experiment: TNAP enzyme inhibition by screening hits, dose response, selectivity assay for mouse IAP inhibitor project, biochemical, human TNAP, uHTS hits (AID 488906). Format: functional.

The target in experiment [14] is Intestinal-type alkaline phosphatase (Homo sapiens, UniProt P09923). Briefly: inhibition of human intestinal alkaline phosphatase – biochemical, dose response (AID 488876). Format: functional.
Sequence of Intestinal-type alkaline phosphatase (Homo sapiens, UniProt P09923) (P09923 whole entry): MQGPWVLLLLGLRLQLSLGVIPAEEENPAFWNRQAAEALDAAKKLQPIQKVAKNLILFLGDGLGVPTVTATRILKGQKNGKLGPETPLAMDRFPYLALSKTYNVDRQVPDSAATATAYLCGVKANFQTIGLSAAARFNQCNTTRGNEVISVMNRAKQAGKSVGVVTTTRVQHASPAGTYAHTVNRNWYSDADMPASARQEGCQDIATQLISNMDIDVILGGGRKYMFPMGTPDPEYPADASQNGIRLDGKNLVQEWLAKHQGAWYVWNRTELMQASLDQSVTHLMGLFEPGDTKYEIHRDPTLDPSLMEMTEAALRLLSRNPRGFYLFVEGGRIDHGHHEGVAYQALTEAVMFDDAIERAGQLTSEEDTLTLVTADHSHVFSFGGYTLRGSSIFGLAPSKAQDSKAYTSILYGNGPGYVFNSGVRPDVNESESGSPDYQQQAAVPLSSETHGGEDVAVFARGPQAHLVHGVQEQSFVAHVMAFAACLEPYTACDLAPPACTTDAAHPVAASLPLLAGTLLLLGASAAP

T4 sequence (Q9HC29 whole entry, the tested form may be a part): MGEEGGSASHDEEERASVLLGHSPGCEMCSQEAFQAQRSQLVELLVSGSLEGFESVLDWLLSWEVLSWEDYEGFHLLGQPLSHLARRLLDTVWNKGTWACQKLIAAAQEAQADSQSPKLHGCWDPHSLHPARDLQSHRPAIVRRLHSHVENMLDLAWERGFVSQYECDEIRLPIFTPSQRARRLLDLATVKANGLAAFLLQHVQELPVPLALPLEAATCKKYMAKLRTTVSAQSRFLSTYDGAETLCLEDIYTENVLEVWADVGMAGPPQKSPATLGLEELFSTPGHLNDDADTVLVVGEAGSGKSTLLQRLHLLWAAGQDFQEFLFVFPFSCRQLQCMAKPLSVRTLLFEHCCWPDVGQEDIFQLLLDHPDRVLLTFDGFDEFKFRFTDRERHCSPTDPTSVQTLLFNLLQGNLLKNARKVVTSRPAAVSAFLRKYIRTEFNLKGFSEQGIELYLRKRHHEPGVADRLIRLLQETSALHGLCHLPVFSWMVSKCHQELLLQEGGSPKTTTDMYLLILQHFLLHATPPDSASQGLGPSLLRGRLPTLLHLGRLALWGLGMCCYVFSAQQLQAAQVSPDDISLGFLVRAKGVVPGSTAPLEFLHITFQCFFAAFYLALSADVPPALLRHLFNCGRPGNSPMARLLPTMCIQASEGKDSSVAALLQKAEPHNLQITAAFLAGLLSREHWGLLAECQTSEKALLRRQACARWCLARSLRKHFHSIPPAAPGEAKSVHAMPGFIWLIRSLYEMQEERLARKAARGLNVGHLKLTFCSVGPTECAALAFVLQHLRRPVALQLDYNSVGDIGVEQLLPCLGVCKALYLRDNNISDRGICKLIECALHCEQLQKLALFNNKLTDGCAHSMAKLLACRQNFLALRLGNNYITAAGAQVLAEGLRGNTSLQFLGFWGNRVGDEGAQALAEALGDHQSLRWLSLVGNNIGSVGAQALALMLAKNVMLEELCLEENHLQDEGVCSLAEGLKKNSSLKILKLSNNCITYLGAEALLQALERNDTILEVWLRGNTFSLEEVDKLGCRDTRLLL

Turning to `CCCCn1c(SCC(=O)c2ccccc2)nc2c1c(=O)[nH]c(=O)n2C`, the IC50 (usually the midpoint of a concentration-inhibition curve) is > 25 µM (inactive) in experiment [1]; > 25 µM (inactive) on Interleukin-8 [3]; > 25 µM (inactive) at Interleukin-8 [4]; > 20 µM (inactive) in experiment [5]; > 20 µM (inactive) in the experiment with HEK293 [6]; > 20 µM (inactive) in [7]. In addition, the IC50 (in [8]; on Tumor necrosis factor; in the experiment on HEK293 [9]; in experiment [10]) was > 20 µM (inactive) in each case. Also, the half-maximal effective concentration (EC50) (commonly the midpoint of the concentration-response curve) in experiment [2] is 3.37 µM (active); on Streptokinase A, > 150 µM (not active); in the experiment with Streptococcus it was 18.4 µM (active).

On to `CCn1cc(CN2CCC(C(=O)Nc3cccc(-c4cccc(Cl)c4)c3)CC2)c(C)n1`, for which the EC50 in [11] is > 195 µM (not active). Moreover, the half-inhibitory concentration (IC50) in [12] was 12.8 µM (active); in [13], > 100 µM (inactive); in [14], > 100 µM (inactive).
